In article PMC9416494, “Cinnamaldehyde and Curcumin Prime Akt2 for Insulin-Stimulated Activation” (Nutrients, 2022):
Like-named read-outs stand apart in the source and are kept apart here.

What was measured:
[1] = system: Akt2; experiment: cIEF immunoassay of Akt2 and p-Akt2 (S474) in primary human subcutaneous preadipocytes; assay type: cell-based; conditions: for change of Akt2 cIEF electropherogram versus untreated control / change of Akt2 cIEF electropherogram versus insulin alone / increase of p-Akt2 (S474) compared to insulin treatment alone / p-Akt2 (S474) induction: 30 min; for change of Akt2 cIEF electropherogram versus untreated control: insulin 100 nM; for change of Akt2 cIEF electropherogram versus untreated control / increase of p-Akt2 (S474) compared to insulin treatment alone / p-Akt2 (S474) induction: cinnamaldehyde 40 µM, curcumin 20 µM; for change of Akt2 cIEF electropherogram versus untreated control / p-Akt2 (S474) induction: okadaic acid 5 nM, PTP1Bi 4 µM; for change of Akt2 cIEF electropherogram versus insulin alone / increase of p-Akt2 (S474) compared to insulin treatment alone: together with insulin 100 nM; for p-Akt2 (S474) induction: treatment without added insulin (insulin itself 100 nM)
Procedure: (§1) Primary human subcutaneous preadipocytes were obtained from Zen-Bio (Cat. No. SP-F-1, Lot #L031219A, Durham, NC, USA) and maintained at 37 °C and 5% CO2 in growth medium comprising Minimum Essential Medium α (cat. no. 12571063, Thermo Fisher Scientific, Waltham, MA, USA) supplemented with 10% fetal bovine serum, 100 units/mL penicillin, and 100 µg/mL streptomycin. […] The donor was undergoing elective surgery and signed an Institutional Review Board validated donor consent form that specifically lists both the intended uses for non-clinical research and confirms the procedures for processing the samples are Standard Operating Procedure managed Good Laboratory Practices protocols in compliance with ethical regulations. All samples were collected and processed in the United States.
(§2) Existing growth media of primary human subcutaneous preadipocytes were replaced with new growth media premixed with treatment compounds and incubated at 37 °C and 5% CO2 for 30 min prior to the collection of total cell extracts. The final concentrations of treatment compounds were as follows: insulin (100 nM, Humulin R, Eli Lilly, Indianapolis, IN, USA), cinnamaldehyde (40 µM, cat. no. W228613, Sigma Aldrich, St. Louis, MO, USA), curcumin (20 µM, cat. no. C7727, Sigma Aldrich, St. Louis, MO, USA), okadaic acid (5 nM, cat. no. ab120375, Cambridge, MA, USA), and PTP1Bi (4 µM, cat. no. 15782, Cayman Chem, Ann Arbor, MI, USA). The concentrations of treatment compounds were selected based on their ability to induce maximal effects on the PTM profile of Akt2, which were experimentally determined.
(§3) Approximately one million cells were incubated on ice for 10 min with 60 µL of lysis buffer (cat. no. 040-764, ProteinSimple, Santa Clara, CA, USA), sonicated 4 times for 5 s each, mixed by rotation for 2 h at 4 °C, and centrifuged at 12,000 rpm in an Eppendorf 5430R microfuge for 20 min at 4 °C. The supernatant was collected as the cell lysate. The total protein concentration in the cell lysate was determined with a Bradford protein assay and adjusted to a final concentration of 0.3 µg/µL with separation gradients (cat. no. Premix G2, pH 5–8, ProteinSimple, Santa Clara, CA, USA) for charge-based cIEF immunoassays.
(§4) Cell lysates in separation gradients were loaded into 384-well assay plates (cat. no. 040-663, ProteinSimple, Santa Clara, CA, USA), which were preloaded with primary and secondary antibodies and chemiluminescent substrates. Charge-based protein separation and detection in individual capillaries were performed using the default protocols of the NanoPro 1000 system (ProteinSimple, Santa Clara, CA, USA). HSP70 was used as the loading control. All cIEF immunoassays were performed in triplicate for each protein, and triplicate experiments were performed for each treatment condition, producing nine repeated measurements per protein analyte.
(§5) Protein abundance was quantified using the Compass software from ProteinSimple (Santa Clara, CA, USA) and normalized with that of HSP70 for cIEF immunoassays or β-actin for capillary Western assays. HSP70 and β-actin served as loading controls.

[2] = biological target: T1, PTP1B (Homo sapiens, UniProt P18031); experiment: Protein tyrosine phosphatase assay (malachite green), recombinant PTP1B; assay type: biochemical; conditions: 30 min, room temperature, read-out: IC50, PTP1B inhibition
T1 construct: purchased Cayman Chem 10010896
T1 sequence (P18031 1-321 limits assumed): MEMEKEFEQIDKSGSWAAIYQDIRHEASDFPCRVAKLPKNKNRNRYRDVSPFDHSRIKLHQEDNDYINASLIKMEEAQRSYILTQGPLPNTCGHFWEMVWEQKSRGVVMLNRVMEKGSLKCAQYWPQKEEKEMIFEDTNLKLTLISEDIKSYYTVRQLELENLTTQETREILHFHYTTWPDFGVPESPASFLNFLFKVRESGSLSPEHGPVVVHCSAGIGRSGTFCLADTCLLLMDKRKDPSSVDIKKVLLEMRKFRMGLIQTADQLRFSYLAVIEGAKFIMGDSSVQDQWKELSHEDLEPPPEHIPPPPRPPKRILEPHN
Procedure: (§6) Ser/Thr phosphatase assay kit (cat. no. 17-127, Millipore, Temecula, CA, USA) was used to detect PP2A activity by dephosphorylation of the phosphopeptide R-K-pT-I-R-R using malachite green detection. Likewise, a protein tyrosine phosphatase assay kit (cat. no. 17-125, Millipore, Burlington, MA, USA) was used to detect PTP1B activity by dephosphorylation of the phosphopeptide R-R-L-I-E-D-A-E-pY-A-A-R-G using malachite green detection. Experimental procedures were performed according to the manufacturer’s protocols. Recombinant PP2A (cat. no. 10011237, Cayman Chem, Ann Arbor, MI, USA) and PTP1B (cat. no. 10010896, Cayman Chem, Ann Arbor, MI, USA) were used. Dephosphorylation reactions were performed at room temperature for 30 min in the presence of serially diluted okadaic acid, PTP1Bi, cinnamaldehyde, or curcumin. The reactions were terminated by the addition of […] malachite green solution and allowed color development to proceed for 15 min at room temperature. Phosphatase activities were measured using absorbance at 650 nm in a microtiter plater reader (Synergy 2, BioTek, Winooski, VT, USA).

[3] = system: Akt3; experiment: cIEF immunoassay of Akt3 in primary human subcutaneous preadipocytes; assay type: cell-based; conditions: for effect on Akt3 cIEF electropherogram: 30 min; for effect on insulin-stimulated phosphorylation of Akt3: with insulin
Procedure: as §1, §2, §3, §4, §5

[4] = system: pan-Akt; experiment: cIEF immunoassay of pan-Akt phosphoisoforms in primary human subcutaneous preadipocytes; assay type: cell-based; conditions: 30 min, versus untreated control
Procedure: as §1, §2, §3, §4, §5

[5] = system: Akt1; experiment: cIEF immunoassay of Akt1 in primary human subcutaneous preadipocytes; assay type: cell-based; conditions: for effect on Akt1 cIEF electropherogram: 30 min; for effect on insulin-stimulated phosphorylation of Akt1: with insulin, cIEF of p-Akt1 (S473) and standard Western
Procedure: as §1, §2, §3, §4, §5

[6] = system: ERK1/2; experiment: cIEF immunoassay of ERK1/2 phosphorylation; assay type: cell-based, human; conditions: following treatment
Procedure: as §2
as §4, with “All cIEF immunoassays were performed in triplicate for each protein, and triplicate experiments were performed for each treatment condition, producing nine repeated measurements per protein analyte.” left out

[7] = biological target: T2, PP2A (Homo sapiens, UniProt P67775); experiment: Ser/Thr phosphatase assay (malachite green), recombinant PP2A; assay type: biochemical
T2 construct: purchased Cayman Chem 10011237
T2 sequence (P67775 1-308 limits assumed): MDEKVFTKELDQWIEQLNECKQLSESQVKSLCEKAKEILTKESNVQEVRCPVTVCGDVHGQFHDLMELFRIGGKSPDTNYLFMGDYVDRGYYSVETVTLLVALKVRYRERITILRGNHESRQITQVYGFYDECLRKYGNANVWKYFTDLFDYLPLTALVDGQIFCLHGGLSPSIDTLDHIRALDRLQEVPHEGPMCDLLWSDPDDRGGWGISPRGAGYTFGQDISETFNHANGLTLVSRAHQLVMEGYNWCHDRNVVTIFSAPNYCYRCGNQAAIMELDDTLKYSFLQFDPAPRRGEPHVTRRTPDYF
Procedure: as §6

[8] = system: pan-Akt; experiment: Capillary Western immunoassay of p-Akt in primary human subcutaneous preadipocytes; assay type: cell-based; conditions: insulin 30 min
Procedure: as §1, §2
The total protein concentration in the cell lysate was determined with a Bradford protein assay and adjusted to a final concentration of 0.4 µg/µL with denaturing buffers (cat. no. PS-ST01EZ or PS-ST03EZ, ProteinSimple, Santa Clara, CA, USA) for size-based Western immunoassays. […]
Protein abundance was quantified using the Compass software from ProteinSimple (Santa Clara, CA, USA) and normalized with that of HSP70 for cIEF immunoassays or β-actin for capillary Western assays. […]

[9] = recombinant PP2A, 30 min, room temperature, read-out: IC50, PP2A inhibition

Compound | IC50 [2] [µM] | effect on Akt3 cIEF electropherogram [3] | effect on insulin-stimulated phosphorylation of Akt3 [3] | abundance of p-Akt (S124) at pI 5.74 [4] | abundance of p-Akt (S246) at pI 5.74 [4] | abundance of p-Akt (Y475) at pI 5.74 [4] | effect on p-Akt (T308) [4] | p-Akt (T450) phosphorylation [4] | change of Akt2 cIEF electropherogram versus untreated control [1] | change of Akt2 cIEF electropherogram versus insulin alone [1] | increase of p-Akt2 (S474) compared to insulin treatment alone [1] | p-Akt2 (S474) induction [1] | effect on Akt1 cIEF electropherogram [5] | effect on insulin-stimulated phosphorylation of Akt1 [5] | ERK1/2 phosphorylation [6] | IC50 [7, 9] [µM] | also measured
O=c1cc(N2CCOCC2)oc2c(-c3ccccc3)cccc12 [LY294002, reference compound] | – | – | – | – | – | – | – | – | – | – | – | – | – | – | – | – | effect on cinnamaldehyde or curcumin-induced phosphorylation of Akt2 ([1]; PI3K inhibitor with cinnamaldehyde or curcumin): unable to inhibit; effect on insulin-stimulated phosphorylation of Akt2 ([1]; PI3K inhibitor with insulin): abrogates
O=C/C=C/c1ccccc1 [cinnamaldehyde] | ~4 | neither cinnamaldehyde or curcumin had any observable effect | no observable effect | increased the abundance | increased the abundance | increased the abundance | no observable effect | increased phosphorylation at the T450 residue | new peak at pI 5.41 | induced the appearance of a new Akt2 isoform at pI 5.15 | approximately 3.5 fold | Neither untreated control preadipocytes or preadipocytes treated with cinnamaldehyde or curcumin had a detectable level | neither cinnamaldehyde or curcumin had any observable effect | promote insulin-stimulated phosphorylation of Akt1 | increased ERK1/2 phosphorylation | ~40 | –
COc1cc(/C=C/C(=O)CC(=O)/C=C/c2ccc(O)c(OC)c2)ccc1O [curcumin] | ~25 | neither cinnamaldehyde or curcumin had any observable effect | no observable effect | increased the abundance | increased the abundance | increased the abundance | no observable effect | increased phosphorylation at the T450 residue | new peak at pI 5.41 | induced the appearance of a new Akt2 isoform at pI 5.15 | approximately 3.5 fold | Neither untreated control preadipocytes or preadipocytes treated with cinnamaldehyde or curcumin had a detectable level | neither cinnamaldehyde or curcumin had any observable effect | promote insulin-stimulated phosphorylation of Akt1 | increased ERK1/2 phosphorylation | ~20 | –
C=C1[C@@H](O)[C@@H]2O[C@]3(CC[C@H](/C=C/[C@@H](C)[C@@H]4CC(C)=C[C@@]5(O[C@H](C[C@@](C)(O)C(=O)O)CC[C@H]5O)O4)O3)CC[C@H]2O[C@@H]1[C@@H](O)C[C@H](C)[C@H]1O[C@@]2(CCCCO2)CC[C@H]1C [okadaic acid, reference compound] | – | – | – | – | – | – | – | – | induced the appearance of a new Akt2 isoform at pI 5.20 | – | – | Neither okadaic acid nor PTP1Bi treatment individually was capable of inducing | – | – | – | – | IC50 [7]: ~0.0005 µM
insulin [reference compound] | – | induced the appearance of new Akt2 and Akt3 isoforms at low pI values | – | – | – | – | – | – | pI 5.20 and 5.30 | – | – | induced the appearance of p-Akt2 (S474) | no observable effect | – | – | – | abundance of p-Akt (S473) [8]: increased the abundance; abundance of p-Akt (T308) [8]: increased the abundance; abundance of p-Akt (T450) [8]: increased the abundance
